Measured values from patent US20150104399A1, “PREVENTION OF FIBROBLAST COLLAPSE” (Biocogent, LLC, priority 2012, published 2015).

Key:
skin fibroblasts [1] = assay: Viability and attachment of confluent fibroblasts exposed to BSA reacted with ribose, neutral red dye, microscopy; type: cell-based, human; conditions: BSA reacted with 100 millimolar ribose in presence of 10 millimolar pyridoxamine; 2 mg/mL BSA, 16 hours; FIG. 6
Protocol: A further series of tests was conducted to evaluate the skin care compositions of the present technology, to see whether they could prevent the target protein of BSA from being toxic to skin fibroblasts. This was done by first reacting BSA with the glycating sugar (ribose) in a buffered saline solution. Some of the reaction mixtures also contained pyridoxamine (a drug used here as the positive control known to prevent glycation) or the skin care compositions of the present technology. For this test, incubation of the sterile reaction mixtures was for two days at a temperature of about 45° C. After that, the reaction mixtures were extensively dialyzed against deionized water, removing all of the small molecules (ribose, salts, etc.) from the mixtures, leaving just the BSA. The resulting BSA solutions were then lyophilized (freeze-dried) to remove water, and the residues of BSA were resolubilized in a buffered saline solution. After measuring the protein concentration of each of these solutions, they were each added to a cell culture dish containing confluent fibroblasts to achieve a final BSA concentration of 2 milligrams per milliliter. After exposure of the cells to these solutions at 37° C. for 16 hours, the viability of the cells was determined by adding a dye (neutral red) to the plates and incubating at 37° C. for another hour. […]

skin fibroblasts [2] = assay: Viability of fibroblasts exposed to BSA reacted with ribose, resazurin dye; type: cell-based; conditions: positive control for preventing glycation; human dermal fibroblasts exposed to glycated protein
Protocol: In some examples discussed herein, comparison was made between the skin care compositions of the present technology and those containing pyridoxamine as a positive control. It was shown that a population of human dermal fibroblasts (HDFs) exposed to glycated proteins is generally expected to collapse. Specifically, glycated protein (such as bovine serum albumin, BSA), when added to normally cultured skin fibroblasts at a concentration in the range of 2 to 6 mg/mL, caused cell death within approximately 18 to 36 hours. […] A series of tests was conducted to evaluate the skin care compositions of the present technology, to see whether they could prevent the target protein of BSA from being toxic to skin fibroblasts. This was done by first reacting BSA with the sugar (ribose) in a buffered saline solution. Some of the reaction mixtures also contained pyridoxamine (a drug used here as the positive control known to prevent glycation) or the skin care compositions of the present technology. […] After exposure of the cells to these solutions at 37° C. for 24 hours, the viability of the cells was determined by adding a dye (resazurin) to the wells and incubating at 37° C. for another hour. […] The color change in the wells was then measured as optical density on a plate-reading spectrophotometer. […]

SMILES: Cc1ncc(CO)c(CN)c1O [pyridoxamine]
- health of fibroblasts (neutral red uptake, attachment) (skin fibroblasts [1]): have remained healthy
- effect on fibroblast collapse (skin fibroblasts [2]): mitigated some of the collapse
